Assay results published in patent US20120201868A1, “TREATMENT AND PREVENTION OF HIV INFECTION” (priority 2009, published 2012).
Where “and” joins values, the source holds several entries; their conditions need not be identical. Identical values can stand only once. Like-named read-outs stand apart in the source and are kept apart here.

Experiments:
[1] = Plasma kinetics after intravenous injection of brecanavir solution in rats; format: in vivo; settings: for clearance / AUC(0-t): rat, plasma, iv
Method: FIG. 1: Individual plasma concentration (ng/ml) versus time profiles following intravenous dosing of a solution of brecanavir in rats at 2 mg/kg.
Brecanavir was injected intraveneously as a 1 mg/ml solution (PEG400/saline 70:30) in rats (n=3) to determine the plasma kinetics of brecanavir in these animals. Plasma samples were collected from each of the rats at selected time points after administration; samples were analyzed for brecanavir concentrations with LC/MS. (See FIG. 1.)

[2] = in vivo, po; cited from earlier work
[3] = Plasma kinetics after single subcutaneous injection of brecanavir solution in rats; format: in vivo, Sprague-Dawley rats; settings: for bioavailability: s.c. solution, read-out: average absolute bioavailability (F)
Method: FIG. 2: Individual and mean plasma concentrations of brecanavir following single subcutaneous injection of a brecanavir solution to rats at 16 (Δ) and 56 mg/kg (∘).
Sprague-Dawley rats (Crl:CD® (SD)IGS) of 200-300 g were injected once subcutaneously with an aqueous solution of brecanavir at 16 (n=4) and at 56 (n=4) mg/kg. The solution was prepared one day before dose administration; brecanavir was formulated in an aqueous 30% (w/v) DMA/50% (w/v) PEG400 solution at 35 mg/ml. The ingredients of the solution were: brecanavir, DMA 30% (w/v), PEG 400 50% (w/v) and pyrogenic free water. The content of brecanavir in the formulation was checked using LC-UV. The concentration of brecanavir in the formulation was 35 mg/ml.
Blood samples (0.3 ml on EDTA) were collected from the rats via the tail vein at 1, 2, 4, 7 and 24 h and further at 3, 4, 8, 14, 29, 42 and 56 days after dosing. Plasma samples were analyzed for brecanavir with a qualified research method on LC/MS/MS. Plasma concentrations were plotted as a function of time after dosing (FIG. 2). Pharmacokinetic parameters were calculated using WinNonlin software. Subcutaneous injection of an aqueous solution of brecanavir in rats produced an extended release pharmacokinetic profile with duration of at least 8 weeks (FIG. 2).

[4] = system: wild type HIV as well as mutated variants; settings: in words; cited from earlier work
[5] = individual rats, i.v. solution, 2 mg/kg
[6] = mean of n=3 rats, i.v. solution, 2 mg/kg
[7] = 2 mg/kg, mean of n=3 rats, i.v. solution
[8] = individual rats, single s.c. solution, 16 mg/kg
[9] = individual rats, single s.c. solution, 56 mg/kg

Structure (SMILES): Cc1nc(COc2ccc(C[C@H](NC(=O)O[C@H]3CO[C@H]4OCC[C@H]43)[C@H](O)CN(CC(C)C)S(=O)(=O)c3ccc4c(c3)OCO4)cc2)cs1 [brecanavir, [(3R,3aS,6aR)-2,3,3a,4,5,6a-hexahydro-furo[5,4-b]furan-3-yl] N-[(2S,3R)-4-(1,3-benzodioxol-5-ylsulfonyl-(2-methylpropyl)-amino)-3-hydroxy-1-[4-[(2-methyl-1,3-thiazol-4-yl)methoxy]phenyl]butan-2-yl]-carbamate]
- AUClast ([1]; individual rats, i.v. solution (PEG400/saline 70:30, 1 mg/ml), 2 mg/kg): 1066 ng·h/mL and 1149 ng·h/mL
- Cl [1, 5]: 30 mL/min/kg and 28.3 mL/min/kg
- Vc [1, 5]: 0.70 L/kg and 0.46 L/kg and 0.52 L/kg
- t1/2β [1, 5]: 2.3 h and 1.5 h (2×)
- Vc [1, 6]: 0.56 L/kg
- t1/2β [1, 6]: 1.8 h
- clearance ([1]; 2 mg/kg, individual rats, i.v. solution): 23.3 mL/min/kg
- AUC(0-t) ([1]; 2 mg/kg, individual rats, i.v. solution (PEG400/saline 70:30, 1 mg/ml), 2 mg/kg): 1370 ng·h/mL
- AUC(0-t) [1, 7]: 1200 ng·h/mL
- clearance [1, 7]: 28.3 mL/min/kg
- distribution volume ([1]; rats, i.v. injection, in words): moderate to small distribution volume
- plasma clearance ([1]; rats, i.v. injection, in words): moderate plasma clearance
- brecanavir exposures [2]: insufficient to inhibit PI-resistant virus
- AUC(0-t) ([3]; Sprague-Dawley (Crl:CD(SD)IGS), rat, plasma, sc, 16 mg/kg, individual rats, single s.c. solution, 16 mg/kg): 6500 ng·h/mL
- AUC(0-t) ([3]; Sprague-Dawley (Crl:CD(SD)IGS), rat, plasma, sc, 16 mg/kg, mean of n=4 rats, single s.c. solution, 16 mg/kg): 8720 ng·h/mL
- Cmax ([3]; Sprague-Dawley (Crl:CD(SD)IGS), rat, plasma, sc, 16 mg/kg, mean of n=4 rats, single s.c. solution, 16 mg/kg, read-out: Cmax): 369 ng/mL
- AUC(0-t) ([3]; Sprague-Dawley (Crl:CD(SD)IGS), rat, plasma, sc, 56 mg/kg, individual rats, single s.c. solution, 56 mg/kg): 29900 ng·h/mL
- AUC(0-t) ([3]; Sprague-Dawley (Crl:CD(SD)IGS), rat, plasma, sc, 56 mg/kg, mean of n=4 rats, single s.c. solution, 56 mg/kg): 21700 ng·h/mL
- Cmax ([3]; Sprague-Dawley (Crl:CD(SD)IGS), rat, plasma, sc, 56 mg/kg, mean of n=4 rats, single s.c. solution, 56 mg/kg, read-out: Cmax): 322 ng/mL
- bioavailability ([3]; Sprague-Dawley (Crl:CD(SD)IGS), rat, plasma, sc, rats, 16 mg/kg): 91%
- bioavailability ([3]; Sprague-Dawley (Crl:CD(SD)IGS), rat, plasma, sc, rats, 56 mg/kg): 66%
- Cmax ([3]; individual rats, single s.c. solution (30% DMA/50% PEG400, 35 mg/ml), 16 mg/kg): 273 ng/mL and 289 ng/mL and 591 ng/mL and 234 ng/mL
- AUClast [3, 8]: 9630 ng·h/mL and 9291 ng·h/mL and 9448 ng·h/mL
- t1/2λz [3, 8]: 10.9 days and 5.58 days and 22.3 days and 17 days
- AUClast [3, 9]: 17602 ng·h/mL and 24284 ng·h/mL and 15221 ng·h/mL
- Cmax [3, 9]: 360 ng/mL and 204 ng/mL and 417 ng/mL and 305 ng/mL
- t1/2λz [3, 9]: 53 days and 16.2 days and 19.2 days and 44.67 days
- t1/2λz ([3]; mean of n=4 rats, single s.c. solution, 16 mg/kg): 14 days
- t1/2λz ([3]; mean of n=4 rats, single s.c. solution, 56 mg/kg): 33.2 days
- duration of extended release pharmacokinetic profile ([3]; rats, s.c. aqueous solution): at least 8 weeks
- absorption into the systemic circulation ([3]; rats, s.c. injection of a high dose solution, in words): very slow absorption
- activity against wild type HIV and mutated variants [4]: pronounced activity
